{"source": "ChEMBL document CHEMBL3046912", "about": "“Effectiveness of 1,3-dichloropropene as an alternative to methyl bromide in rotations of tomato (Solanum lycopersicum) and cucumber (Cucumis sativus) in China” (2012)", "key": {"Meloidogyne incognita": {"test_system": "Meloidogyne incognita", "assay": "Nematicidal activity against Meloidogyne incognita (root-knot nematode) in cucumber growing fields exposed to 180 L/ha compound fumigation treatment assessed as root galling index measured 20 days after compound treatment (reference value: 8.72 root galling index)", "assay_type": "functional"}, "Arenaria serpyllifolia [1]": {"test_system": "Arenaria serpyllifolia", "assay": "Herbicidal activity against Arenaria serpyllifolia in tomato plants fields exposed to 180 L/ha compound fumigation treatment assessed as hand weeding time per plot (reference value: 243.3 hr/ha)", "assay_type": "functional"}, "Capsella bursa-pastoris [2]": {"test_system": "Capsella bursa-pastoris", "assay": "Herbicidal activity against Capsella bursa-pastoris in cucumber plants fields exposed to 180 L/ha compound fumigation treatment assessed as hand weeding time per plot (reference value: 258.3 hr/ha)", "assay_type": "functional"}, "Cucumis sativus [3]": {"test_system": "Cucumis sativus", "assay": "Increase in plant height of Cucumis sativus (cucumber) exposed to 90 L/ha compound fumigation treatment measured 50 days after compound treatment (reference value: 103.2 cm)", "assay_type": "functional"}, "Solanum lycopersicum [4]": {"test_system": "Solanum lycopersicum", "assay": "Increase in plant height of Solanum lycopersicum (tomato) exposed to 180 L/ha compound fumigation treatment measured 50 days after compound treatment (reference value: 86.2 cm)", "assay_type": "functional"}, "Solanum lycopersicum [5]": {"test_system": "Solanum lycopersicum", "assay": "Increase in crop yield in Solanum lycopersicum (tomato) plants exposed to 90 L/ha compound fumigation treatment assessed as marketable yield fruit yield (reference value: 51.3 ton/ha)", "assay_type": "functional"}, "Solanum lycopersicum [6]": {"test_system": "Solanum lycopersicum", "assay": "Increase in plant height of Solanum lycopersicum (tomato) exposed to 120 L/ha compound fumigation treatment measured 50 days after compound treatment (reference value: 86.2 cm)", "assay_type": "functional"}, "Arenaria serpyllifolia [7]": {"test_system": "Arenaria serpyllifolia", "assay": "Herbicidal activity against Arenaria serpyllifolia in cucumber plants fields exposed to 180 L/ha compound fumigation treatment assessed as hand weeding time per plot (reference value: 258.3 hr/ha)", "assay_type": "functional"}, "Capsella bursa-pastoris [8]": {"test_system": "Capsella bursa-pastoris", "assay": "Herbicidal activity against Capsella bursa-pastoris in cucumber plants fields exposed to 90 L/ha compound fumigation treatment assessed as hand weeding time per plot relative to untreated control", "assay_type": "functional"}, "Digitaria sanguinalis [9]": {"test_system": "Digitaria sanguinalis", "assay": "Herbicidal activity against Digitaria sanguinalis (hairy crabgrass) in cucumber plants fields exposed to 180 L/ha compound fumigation treatment assessed as hand weeding time per plot (reference value: 258.3 hr/ha)", "assay_type": "functional"}, "Solanum lycopersicum [10]": {"test_system": "Solanum lycopersicum", "assay": "Increase in crop yield in Cucumis sativus (cucumber) plants exposed to 90 L/ha compound fumigation treatment assessed as large fruit yield (reference value: 19.5 ton/ha)", "assay_type": "functional"}, "Capsella bursa-pastoris [11]": {"test_system": "Capsella bursa-pastoris", "assay": "Herbicidal activity against Capsella bursa-pastoris in tomato plants fields exposed to 180 L/ha compound fumigation treatment assessed as hand weeding time per plot relative to untreated control", "assay_type": "functional"}, "Solanum lycopersicum [12]": {"test_system": "Solanum lycopersicum", "assay": "Increase in crop yield in Cucumis sativus (cucumber) plants exposed to 120 L/ha compound fumigation treatment assessed as medium fruit yield (reference value: 38.6 ton/ha)", "assay_type": "functional"}, "Digitaria sanguinalis [13]": {"test_system": "Digitaria sanguinalis", "assay": "Herbicidal activity against Digitaria sanguinalis (hairy crabgrass) in tomato plants fields exposed to 180 L/ha compound fumigation treatment assessed as hand weeding time per plot (reference value: 243.3 hr/ha)", "assay_type": "functional"}, "Solanum lycopersicum [14]": {"test_system": "Solanum lycopersicum", "assay": "Increase in crop yield in Cucumis sativus (cucumber) plants exposed to 90 L/ha compound fumigation treatment assessed as marketable yield fruit yield (reference value: 65.3 ton/ha)", "assay_type": "functional"}, "Cucumis sativus [15]": {"test_system": "Cucumis sativus", "assay": "Increase in plant height of Cucumis sativus (cucumber) exposed to 120 L/ha compound fumigation treatment measured 50 days after compound treatment (reference value: 103.2 cm)", "assay_type": "functional"}, "Arenaria serpyllifolia [16]": {"test_system": "Arenaria serpyllifolia", "assay": "Herbicidal activity against Arenaria serpyllifolia in cucumber plants fields exposed to 120 L/ha compound fumigation treatment assessed as hand weeding time per plot relative to untreated control", "assay_type": "functional"}, "Solanum lycopersicum [17]": {"test_system": "Solanum lycopersicum", "assay": "Increase in crop yield in Solanum lycopersicum (tomato) plants exposed to 90 L/ha compound fumigation treatment assessed as extra-large fruit yield (reference value: 3.8 ton/ha)", "assay_type": "functional"}, "Arenaria serpyllifolia [18]": {"test_system": "Arenaria serpyllifolia", "assay": "Herbicidal activity against Arenaria serpyllifolia in cucumber plants fields exposed to 120 L/ha compound fumigation treatment assessed as hand weeding time per plot (reference value: 258.3 hr/ha)", "assay_type": "functional"}, "Solanum lycopersicum [19]": {"test_system": "Solanum lycopersicum", "assay": "Increase in crop yield in Solanum lycopersicum (tomato) plants exposed to 90 L/ha compound fumigation treatment assessed as medium fruit yield (reference value: 32.3 ton/ha)", "assay_type": "functional"}, "Solanum lycopersicum [20]": {"test_system": "Solanum lycopersicum", "assay": "Increase in crop yield in Solanum lycopersicum (tomato) plants exposed to 180 L/ha compound fumigation treatment assessed as marketable yield fruit yield (reference value: 51.3 ton/ha)", "assay_type": "functional"}, "Arenaria serpyllifolia [21]": {"test_system": "Arenaria serpyllifolia", "assay": "Herbicidal activity against Arenaria serpyllifolia in tomato plants fields exposed to 180 L/ha compound fumigation treatment assessed as hand weeding time per plot relative to untreated control", "assay_type": "functional"}, "Arenaria serpyllifolia [22]": {"test_system": "Arenaria serpyllifolia", "assay": "Herbicidal activity against Arenaria serpyllifolia in tomato plants fields exposed to 120 L/ha compound fumigation treatment assessed as hand weeding time per plot (reference value: 243.3 hr/ha)", "assay_type": "functional"}, "Solanum lycopersicum [23]": {"test_system": "Solanum lycopersicum", "assay": "Increase in crop yield in Cucumis sativus (cucumber) plants exposed to 180 L/ha compound fumigation treatment assessed as medium fruit yield (reference value: 38.6 ton/ha)", "assay_type": "functional"}, "Solanum lycopersicum [24]": {"test_system": "Solanum lycopersicum", "assay": "Increase in crop yield in Cucumis sativus (cucumber) plants exposed to 120 L/ha compound fumigation treatment assessed as extra-large fruit yield (reference value: 7.2 ton/ha)", "assay_type": "functional"}, "Arenaria serpyllifolia [25]": {"test_system": "Arenaria serpyllifolia", "assay": "Herbicidal activity against Arenaria serpyllifolia in tomato plants fields exposed to 120 L/ha compound fumigation treatment assessed as hand weeding time per plot relative to untreated control", "assay_type": "functional"}, "Solanum lycopersicum [26]": {"test_system": "Solanum lycopersicum", "assay": "Increase in crop yield in Solanum lycopersicum (tomato) plants exposed to 120 L/ha compound fumigation treatment assessed as medium fruit yield (reference value: 32.3 ton/ha)", "assay_type": "functional"}, "Solanum lycopersicum [27]": {"test_system": "Solanum lycopersicum", "assay": "Increase in crop yield in Solanum lycopersicum (tomato) plants exposed to 120 L/ha compound fumigation treatment assessed as extra-large fruit yield (reference value: 3.8 ton/ha)", "assay_type": "functional"}, "Solanum lycopersicum [28]": {"test_system": "Solanum lycopersicum", "assay": "Increase in crop yield in Cucumis sativus (cucumber) plants exposed to 180 L/ha compound fumigation treatment assessed as extra-large fruit yield (reference value: 7.2 ton/ha)", "assay_type": "functional"}, "Digitaria sanguinalis [29]": {"test_system": "Digitaria sanguinalis", "assay": "Herbicidal activity against Digitaria sanguinalis (hairy crabgrass) in cucumber plants fields exposed to 90 L/ha compound fumigation treatment assessed as hand weeding time per plot (reference value: 258.3 hr/ha)", "assay_type": "functional"}, "Solanum lycopersicum [30]": {"test_system": "Solanum lycopersicum", "assay": "Increase in crop yield in Solanum lycopersicum (tomato) plants exposed to 120 L/ha compound fumigation treatment assessed as marketable yield fruit yield (reference value: 51.3 ton/ha)", "assay_type": "functional"}, "Digitaria sanguinalis [31]": {"test_system": "Digitaria sanguinalis", "assay": "Herbicidal activity against Digitaria sanguinalis (hairy crabgrass) in cucumber plants fields exposed to 90 L/ha compound fumigation treatment assessed as hand weeding time per plot relative to untreated control", "assay_type": "functional"}, "Solanum lycopersicum [32]": {"test_system": "Solanum lycopersicum", "assay": "Increase in crop yield in Solanum lycopersicum (tomato) plants exposed to 180 L/ha compound fumigation treatment assessed as large fruit yield (reference value: 15.2 ton/ha)", "assay_type": "functional"}, "Phytophthora melonis": {"test_system": "Phytophthora melonis", "assay": "Fungicidal activity against Phytophthora melonis-induced blight disease in cucumber plants at 120 to 180 L/ha measured 20 to 60 days post compound treatment", "assay_type": "functional, organism-based"}, "Solanum lycopersicum [33]": {"test_system": "Solanum lycopersicum", "assay": "Increase in crop yield in Cucumis sativus (cucumber) plants exposed to 180 L/ha compound fumigation treatment assessed as large fruit yield (reference value: 19.5 ton/ha)", "assay_type": "functional"}, "Capsella bursa-pastoris [34]": {"test_system": "Capsella bursa-pastoris", "assay": "Herbicidal activity against Capsella bursa-pastoris in cucumber plants fields exposed to 120 L/ha compound fumigation treatment assessed as hand weeding time per plot relative to untreated control", "assay_type": "functional"}, "Solanum lycopersicum [35]": {"test_system": "Solanum lycopersicum", "assay": "Increase in plant height of Solanum lycopersicum (tomato) exposed to 120 L/ha compound fumigation treatment measured 30 days after compound treatment (reference value: 28.4 cm)", "assay_type": "functional"}}, "note": "Calls of active or inactive are those of the source. The calls are words filed in the database; no cut-off is given here."}
{"smiles": "Cl/C=C/CCl", "note": "[1,3-DICHLOROPROPENE]", "values": [{"measurement": "Root_galling_index", "setting": "Meloidogyne incognita", "value": 2.02}, {"measurement": "Time", "setting": "Arenaria serpyllifolia [1]", "value": 55.6, "unit": "hr/ha"}, {"measurement": "Time", "setting": "Capsella bursa-pastoris [2]", "value": 62.3, "unit": "hr/ha"}, {"measurement": "Activity", "setting": "Cucumis sativus [3]", "value": 112.3, "unit": "cm"}, {"measurement": "Activity", "setting": "Solanum lycopersicum [4]", "value": 117.8, "unit": "cm"}, {"measurement": "Crop_yield", "setting": "Solanum lycopersicum [5]", "value": 62.4, "unit": "tons/ha"}, {"measurement": "Activity", "setting": "Solanum lycopersicum [6]", "value": 108.6, "unit": "cm"}, {"measurement": "Time", "setting": "Arenaria serpyllifolia [7]", "value": 62.3, "unit": "hr/ha"}, {"measurement": "Activity", "setting": "Capsella bursa-pastoris [8]", "value": 45, "unit": "%"}, {"measurement": "Time", "setting": "Digitaria sanguinalis [9]", "value": 62.3, "unit": "hr/ha"}, {"measurement": "Crop_yield", "setting": "Solanum lycopersicum [10]", "value": 24.8, "unit": "tons/ha"}, {"measurement": "Activity", "setting": "Capsella bursa-pastoris [11]", "value": 45, "unit": "%"}, {"measurement": "Crop_yield", "setting": "Solanum lycopersicum [12]", "value": 49.1, "unit": "tons/ha"}, {"measurement": "Time", "setting": "Digitaria sanguinalis [13]", "value": 55.6, "unit": "hr/ha"}, {"measurement": "Crop_yield", "setting": "Solanum lycopersicum [14]", "value": 84, "unit": "tons/ha"}, {"measurement": "Activity", "setting": "Cucumis sativus [15]", "value": 120.5, "unit": "cm"}, {"measurement": "Activity", "setting": "Arenaria serpyllifolia [16]", "value": 45, "unit": "%"}, {"measurement": "Crop_yield", "setting": "Solanum lycopersicum [17]", "value": 4.8, "unit": "tons/ha"}, {"measurement": "Time", "setting": "Arenaria serpyllifolia [18]", "value": 74.4, "unit": "hr/ha"}, {"measurement": "Crop_yield", "setting": "Solanum lycopersicum [19]", "value": 38.7, "unit": "tons/ha"}, {"measurement": "Crop_yield", "setting": "Solanum lycopersicum [20]", "value": 76.3, "unit": "tons/ha"}, {"measurement": "Activity", "setting": "Arenaria serpyllifolia [21]", "value": 45, "unit": "%"}, {"measurement": "Time", "setting": "Arenaria serpyllifolia [22]", "value": 66.4, "unit": "hr/ha"}, {"measurement": "Crop_yield", "setting": "Solanum lycopersicum [23]", "value": 52.3, "unit": "tons/ha"}, {"measurement": "Crop_yield", "setting": "Solanum lycopersicum [24]", "value": 12.1, "unit": "tons/ha"}, {"measurement": "Activity", "setting": "Arenaria serpyllifolia [25]", "value": 45, "unit": "%"}, {"measurement": "Crop_yield", "setting": "Solanum lycopersicum [26]", "value": 42.5, "unit": "tons/ha"}, {"measurement": "Crop_yield", "setting": "Solanum lycopersicum [27]", "value": 6.4, "unit": "tons/ha"}, {"measurement": "Crop_yield", "setting": "Solanum lycopersicum [28]", "value": 14.8, "unit": "tons/ha"}, {"measurement": "Time", "setting": "Digitaria sanguinalis [29]", "value": 90.5, "unit": "hr/ha"}, {"measurement": "Crop_yield", "setting": "Solanum lycopersicum [30]", "value": 68.1, "unit": "tons/ha"}, {"measurement": "Activity", "setting": "Digitaria sanguinalis [31]", "value": 45, "unit": "%"}, {"measurement": "Crop_yield", "setting": "Solanum lycopersicum [32]", "value": 22.6, "unit": "tons/ha"}, {"measurement": "Activity", "setting": "Phytophthora melonis", "value": "Active"}, {"measurement": "Crop_yield", "setting": "Solanum lycopersicum [33]", "value": 31.7, "unit": "tons/ha"}, {"measurement": "Activity", "setting": "Capsella bursa-pastoris [34]", "value": 45, "unit": "%"}, {"measurement": "Activity", "setting": "Solanum lycopersicum [35]", "value": 37.9, "unit": "cm"}]}
